Measurements: US9884012B2, “Use of PEDF-derived polypeptides for promoting muscle or tendon regeneration or arteriogenesis” (MacKay Memorial Hospital, priority 2012, dated 2018)

How the values were obtained:
soleus muscle = experiment: bupivacaine myonecrosis model, centrally nucleated muscle fibers; assay type: in vivo, Sprague-Dawley rats; settings: for centrally nucleated fibers in regenerating muscle: 14 days after the bupivacaine injection, in words; for Centrally nucleated fibers (%): day 7 after the bupivacaine injection, soleus muscle, sustained-release formulation (Bolus: bolus 29-mer)
Description: To ascertain the number of centrally nucleated muscle fibers, sections were stained with H&E and then photographed as described above. At least 100 stained fibers were randomly chosen from each photo. Muscle fibers were judged centrally nucleated if one or more nuclei were not located at the periphery of the fiber. The data were expressed as a % of the total number of muscle fibers counted. Results were evaluated from 6 sections per muscle section, and 10 mice at each group.
To investigate the effects of the present PEDF peptides on muscle regeneration, a rat myonecrosis model of a single injection of bupivacaine into the soleus muscle was employed. Adult 10-week-old male Sprague-Dawley rats (initial body weight=312±11 g) were anesthetized by an intraperitoneal injection of a xylazine (10 mg/kg). Then, the soleus muscle was injured by unilaterally injecting 0.5 ml bupivacaine (AstraZeneca) with a disposable syringe with a 26-gauge needle. Briefly, the needle was inserted into the distal portion of the soleus muscle and then receded longitudinally to the proximal portion accompanying evenly bupivacaine solution injection. The solution was then injected throughout the entire length of the muscle as the needle was slowly withdrawn.
After bupivacaine injection, rats were divided equally (n=10/group) into four experimental groups and treated as follows. In the blank control group, the mice were treated with 50 μl of blank alginate gel. In the treatments groups, the mice received 50 μl of the sustained-release formulation (29-mer or 20-mer). The mice in the bolus control group received the bolus formulation (29-mer). Treatments were applied by way of a single intramuscular injection to the soleus muscle immediately after the bupivacaine perfusion.
In the process of muscle regeneration, newly generated muscle fibers typically contain central located nuclei. […] Statistical analysis regarding the percentage of centrally nucleated fibers was performed at day 7 after the bupivacaine injection, and the results were summarized in Table 6.

[1] = test system: bone marrow-derived mesenchymal stem cells (BM-MSCs); experiment: BM-MSC differentiation into tenocytes, tenomodulin (TNMD) gene expression by RT-PCR; assay type: cell-based, Sprague-Dawley rats; settings: 50 nM peptide, 1% FBS-DMEM, 24 or 48 hours, in words
Description: Primary rat BM-MSCs were isolated from femur of male Sprague-Dawley rats (300-450 g). Femora were aseptically removed and dissected free of adhering tissues, and then the marrow cavities were flushed by injection of DMEM medium. Collected bone marrow cells were incubated in a 100×15-mm Petri dish in DMEM medium supplemented with 10% FBS, 100 U/ml penicillin, and 100 μg/ml streptomycin for 2 weeks in 5% CO2 at 37° C. The medium was replaced every 2 to 3 days. For passage, near-confluent cells were detached by 0.25% trypsin and then 2×10^5 subcultured cells were seeded in a well of 6-well plate and further cultured in the 10% FBS-DMEM. Before treatment, cells were starved for 12 hours in DMEM supplemented with 1% FBS followed by treatment with 50 nM PEDF-derived peptide (29-mer or 20-mer) in fresh 1% FBS-DMEM for either 24 or 48 hours.
The total RNA was extracted from cells using TRIzol and treated with RNase-free DNase I (Qiagen, Santa Clarita, Calif.) to remove genomic DNA and then purified with an RNA purification kit (Dynabeads). […]
The PCR products were electrophoresed in a 2% agarose gel containing ethidium bromide and visualized by UV illumination. The intensities of the PCR products were quantified densitometrically using a FUJI LAS-3000 system and Multi Gauge Ver. […]

Row | Sequence | centrally nucleated fibers in regenerating muscle (soleus muscle) | Centrally nucleated fibers (%) (soleus muscle) | tenocyte differentiation of BM-MSCs (TNMD gene expression) [1]
1 | SLGAEQRTESIIHRALYYDL [20-mer, synthetic peptide corresponding to residues 93-112 of human PEDF] | much less centrally nucleated fibers | 63.3 ± 7.4 | effective inducer of tenocyte-like cell differentiation
2 | SLGAEQRTESIIHRALYYDLISSPDIHGT [29-mer, synthetic peptide corresponding to residues 93-121 of human PEDF] | much less centrally nucleated fibers | 75.2 ± 7.0 | effective inducer of tenocyte-like cell differentiation
